# Experimental data published in ChEMBL document CHEMBL1201862, “PubChem BioAssay data set” (2004).
#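 Protocol summary: plate cells (96-well), add compound at 5 concentrations, incubate 48 h, interpolate endpoints linearly. GI50 = concentration required for 50% inhibition of growth.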 The source made the active and inactive calls. Cut-off read from the data, not from the text of the source: active = GI50 up to about 1.1 µM and inactive = higher.
# Tests used:
# Test in all cases: inhibition of tumour cell growth, NCI panel, 48 h
# [1] = tested on: HT-29
# [2] = tested on: Hs-578T
# [3] = tested on: IGROV-1
# [4] = tested on: K562
# [5] = tested on: KM12
# [6] = tested on: MDA-MB-435
# [7] = tested on: MDA-N
# [8] = tested on: MOLT-4
# [9] = tested on: NCI-H226
# [10] = tested on: NCI-H460
# [11] = tested on: OVCAR-5
# [12] = tested on: OVCAR-8
# [13] = tested on: PC-3
# [14] = tested on: SF-295
# [15] = tested on: SK-MEL-28
# [16] = tested on: SK-MEL-2
# [17] = tested on: SNB-19
# [18] = tested on: SR
# [19] = tested on: SW-620
# [20] = tested on: UACC-257
Compound,GI50 [1],GI50 [2],GI50 [3],GI50 [4],GI50 [5],GI50 [6],GI50 [7],GI50 [8],GI50 [9],GI50 [10],GI50 [11],GI50 [12],GI50 [13],GI50 [14],GI50 [15],GI50 [16],GI50 [17],GI50 [18],GI50 [19],GI50 [20]
COc1cc(S(=O)(=O)Nc2nc(-c3ccc(N4C(=O)/C(=C/c5ccccc5)N=C4c4ccccc4)cc3)cs2)ccc1Cl,78.3 µM (inactive),21 µM (inactive),44.2 µM (inactive),41.6 µM (inactive),50.6 µM (inactive),46.9 µM (inactive),37.3 µM (inactive),28.2 µM (inactive),62.5 µM (inactive),> 100 µM (inactive),> 100 µM (inactive),44.4 µM (inactive),36.6 µM (inactive),> 100 µM (inactive),54.7 µM (inactive),24.6 µM (inactive),50.6 µM (inactive),36.1 µM (inactive),55.1 µM (inactive),55.2 µM (inactive)
S=c1[nH]c(=S)c2cc(Sc3ccc4[nH]c(=S)[nH]c(=S)c4c3)ccc2[nH]1,41 µM (inactive),22 µM (inactive),30 µM (inactive),49.1 µM (inactive),24 µM (inactive),53 µM (inactive),40.9 µM (inactive),46.8 µM (inactive),20.4 µM (inactive),45.5 µM (inactive),> 100 µM (inactive),22 µM (inactive),52.5 µM (inactive),22 µM (inactive),53.8 µM (inactive),45.1 µM (inactive),30.4 µM (inactive),17.1 µM (inactive),48.4 µM (inactive),43.3 µM (inactive)
CC(=O)c1c2c(cc3c1CC1(Cc4ccccc4C1=O)C3)CCC2 (stereo not given),20.5 µM (inactive),28.8 µM (inactive),16.3 µM (inactive),16.3 µM (inactive),16.2 µM (inactive),22.3 µM (inactive),28.6 µM (inactive),10.6 µM (inactive),22.9 µM (inactive),28.6 µM (inactive),51.2 µM (inactive),18 µM (inactive),41.3 µM (inactive),25.2 µM (inactive),20.9 µM (inactive),27.1 µM (inactive),45.2 µM (inactive),15.3 µM (inactive),32.3 µM (inactive),17.9 µM (inactive)
Cc1ccc(-c2nc(C)c(C(=O)Nc3ccc(Cl)cc3)s2)cc1,> 100 µM (inactive),21.8 µM (inactive),29.2 µM (inactive),> 100 µM (inactive),> 100 µM (inactive),> 100 µM (inactive),> 100 µM (inactive),> 100 µM (inactive),20.6 µM (inactive),29.5 µM (inactive),82.2 µM (inactive),18.8 µM (inactive),44.8 µM (inactive),15.4 µM (inactive),> 100 µM (inactive),34.4 µM (inactive),20.5 µM (inactive),> 100 µM (inactive),41.7 µM (inactive),> 100 µM (inactive)
O=C(NCCN1C(=O)CN=C(c2ccc(Cl)cc2)c2cc(Cl)ccc21)OCc1ccccc1,11.8 µM (inactive),17.4 µM (inactive),15.3 µM (inactive),5.06 µM (inactive),15.3 µM (inactive),15.1 µM (inactive),16.5 µM (inactive),0.255 µM (active),15.6 µM (inactive),13.4 µM (inactive),19.2 µM (inactive),16.3 µM (inactive),11.5 µM (inactive),13.7 µM (inactive),33.7 µM (inactive),18.1 µM (inactive),18.9 µM (inactive),9.48 µM (inactive),13.6 µM (inactive),15.3 µM (inactive)
COC(=O)C1(Cc2ccc3c(c2)CCC3)Cc2ccccc2C1O (stereo not given),16.7 µM (inactive),20 µM (inactive),21.6 µM (inactive),12.2 µM (inactive),22.6 µM (inactive),18.7 µM (inactive),3.36 µM (inactive),8.22 µM (inactive),17.3 µM (inactive),18.6 µM (inactive),28.6 µM (inactive),18.6 µM (inactive),11.5 µM (inactive),17.5 µM (inactive),16.9 µM (inactive),12.8 µM (inactive),19.3 µM (inactive),26.4 µM (inactive),17.3 µM (inactive),15 µM (inactive)
Nc1nc(OCC2CCCCC2)c2nc[nH]c2n1,12.3 µM (inactive),8.39 µM (inactive),5 µM (inactive),29.1 µM (inactive),15.7 µM (inactive),13.7 µM (inactive),13.1 µM (inactive),8.47 µM (inactive),9.59 µM (inactive),8.38 µM (inactive),13.6 µM (inactive),16.5 µM (inactive),10.8 µM (inactive),17.7 µM (inactive),26.2 µM (inactive),4.5 µM (inactive),25.2 µM (inactive),6.85 µM (inactive),23.3 µM (inactive),17.3 µM (inactive)
